Results on two compounds are retold here after patent US7618790B2, “Method for NGF assay for in vitro diagnosis of breast cancer and therapeutic use” (Biomerieux, priority 2002, dated 2009).

One experiment concerns MCF-7 cells. As to the kind of experiment: Growth of MCF-7 cancer cells (cell count with hemocytometer). As to conditions: serum-free basic medium, 24-72 h, FIG. 4A. In kind it is cell-based, human. On the procedure:
The effect of the blocking antibody MAB-256 (above) and of the inhibitor K-252a on the growth of MCF-7 cells was studied. To do this, the cells were seeded in a proportion of 2×10^4 cells/ml in 35 mm dishes in complete medium. After having reached 40% confluency, the cells were washed twice and were left without nutrients in a serum-free medium containing fibronectin (2 μg/ml) and transferrin (30 μg/ml) for 3 h. The following hour, the medium was replaced with 2 ml of the same medium containing the inhibitor K-252a or the antibody […] at various concentrations in order to study the effect of the pharmacological inhibitor or of the blocking inhibitor on the base line growth level. After treatment for 24, 36, 48 and 72 h, the number of cells was determined, after trypsinization of the monolayer culture with a solution of 0.25% trypsin/EDTA, using a hemocytometer. An anti-mouse monoclonal antibody ([…], Sigma), i.e. an irrelevant antibody, was also used in order to determine the specificity of the blocking antibody.

The subject of a further experiment is PC12 cells. As to the kind of experiment: Coculture of NGF-sensitive PC12 cells with MCF-7 breast cancer cells (neurite differentiation). In kind it is cell-based. On the procedure: To do this, cells which develop in the presence of NGF, i.e. PC12 cells, were cocultured with MCF-7 breast cancer cells, as described in point 1.1 above, or else with NBEC cells, as described in point 1.1 above, as a control.
The PC12 cells were cultured beforehand at 37° C. in a 5% CO2 atmosphere, in Dulbecco's modified minimum essential medium (DMEM) supplemented with 3 g/l of sodium bicarbonate, 4 mM of L-glutamine, 10% of fetal calf serum, 5% of horse serum and 100 units/ml of penicillin/streptomycin.
The coculturing was carried out with Transwell® tissue culture-treated polycarbonate plates (12 mm in diameter and 12 μm pore size). An initial equilibrating period was observed by adding the media to the central well of the plate, and then to the Transwell® insert, which operation was followed by incubation at 37° C. for 3 h.
The PC12 cells were seeded in 12-well plates coated with collagen for 24 h in order to ensure correct attachment to the culture plates. The MCF-7 or NCBE cells were seeded inside the Transwell® insert, corresponding to the upper compartment, in the complete medium for 24 h. After this time, each cell line was rinsed three times with serum-free medium and was incubated in a withdrawal medium. […] The percentage of cells bearing neurites, defined as cells with one or more neurite extensions twice the length of the cell body, was counted. […]

With `COC(=O)[C@@]1(O)C[C@H]2O[C@]1(C)n1c3ccccc3c3c4c(c5c6ccccc6n2c5c31)C(=O)NC4` [K-252a], in the experiment on MCF-7 cells, the “growth of the MCF-7 cells (number of cells)” value is “decreases”. Besides, the “PC12 cell differentiation (cells bearing neurites)” value with PC12 cells (coculture of MCF-7 and PC12 cells, 48 h, FIG. 2B) is recorded as “strong inhibition of the PC12 cell differentiation”.
Consider “NGF: nerve growth factor added to the medium as positive control for PC12 differentiation”, for which the “PC12 cell differentiation (neurite development)” value in the experiment with PC12 cells (culture of PC12 cells alone as a control, in the presence of NGF, FIG. 2B photograph 3) is “neurite development due to differentiation is observed”.
